Measured values reported in patent publication US8188078B2 (Sanofi-Aventis, priority 2007, dated 2012).

Assays:
[1] = test system: MKN45 cells; assay: Test D: cellular proliferation by 14C-thymidine pulse, MKN45 cells; assay type: cell-based; conditions: Homo sapiens, MKN-45, cellular proliferation by 14C-thymidine pulse; cell line not stated (HCT116 or MKN45)
Description: D) Measurement of Cellular Proliferation by 14C-Thymidine Pulse
The cells are sown in Cytostar 96-well plates under 180 μl for 4 hours at 37° C. and 5% CO2: The HCT116 cells at a rate of 2500 cells per well in DMEM medium+10% foetal calf serum+1% of L-glutamine and the MKN45 cells at a rate of 7500 cells per well in RPMI medium+10% foetal calf serum+1% of L-glutamine. After said incubation for 4 hours, the products are added under 10 μl in 20-times concentrated solution according to the method of dilution stated for ELISA. The products are tested at 10 concentrations in duplicate from 10000 nM to 0.3 nM in steps of 3.
After treatment for 72 h, add 10 μl of 14C-thymidine at 10 μCi/ml to obtain 0.1 μCi per well. The incorporation of 14C-thymidine is measured on a Micro-Beta (Perkin-Elmer) after 24 hours of pulse and 96 h of treatment.
All the stages of the test are automated on the BIOMEK 2000 or TECAN stations.

[2] = target: RON (Homo sapiens, UniProt Q04912); assay: Test B: HTRF RON test in 96-well format; assay type: biochemical
RON, sequence (Q04912 25-1400): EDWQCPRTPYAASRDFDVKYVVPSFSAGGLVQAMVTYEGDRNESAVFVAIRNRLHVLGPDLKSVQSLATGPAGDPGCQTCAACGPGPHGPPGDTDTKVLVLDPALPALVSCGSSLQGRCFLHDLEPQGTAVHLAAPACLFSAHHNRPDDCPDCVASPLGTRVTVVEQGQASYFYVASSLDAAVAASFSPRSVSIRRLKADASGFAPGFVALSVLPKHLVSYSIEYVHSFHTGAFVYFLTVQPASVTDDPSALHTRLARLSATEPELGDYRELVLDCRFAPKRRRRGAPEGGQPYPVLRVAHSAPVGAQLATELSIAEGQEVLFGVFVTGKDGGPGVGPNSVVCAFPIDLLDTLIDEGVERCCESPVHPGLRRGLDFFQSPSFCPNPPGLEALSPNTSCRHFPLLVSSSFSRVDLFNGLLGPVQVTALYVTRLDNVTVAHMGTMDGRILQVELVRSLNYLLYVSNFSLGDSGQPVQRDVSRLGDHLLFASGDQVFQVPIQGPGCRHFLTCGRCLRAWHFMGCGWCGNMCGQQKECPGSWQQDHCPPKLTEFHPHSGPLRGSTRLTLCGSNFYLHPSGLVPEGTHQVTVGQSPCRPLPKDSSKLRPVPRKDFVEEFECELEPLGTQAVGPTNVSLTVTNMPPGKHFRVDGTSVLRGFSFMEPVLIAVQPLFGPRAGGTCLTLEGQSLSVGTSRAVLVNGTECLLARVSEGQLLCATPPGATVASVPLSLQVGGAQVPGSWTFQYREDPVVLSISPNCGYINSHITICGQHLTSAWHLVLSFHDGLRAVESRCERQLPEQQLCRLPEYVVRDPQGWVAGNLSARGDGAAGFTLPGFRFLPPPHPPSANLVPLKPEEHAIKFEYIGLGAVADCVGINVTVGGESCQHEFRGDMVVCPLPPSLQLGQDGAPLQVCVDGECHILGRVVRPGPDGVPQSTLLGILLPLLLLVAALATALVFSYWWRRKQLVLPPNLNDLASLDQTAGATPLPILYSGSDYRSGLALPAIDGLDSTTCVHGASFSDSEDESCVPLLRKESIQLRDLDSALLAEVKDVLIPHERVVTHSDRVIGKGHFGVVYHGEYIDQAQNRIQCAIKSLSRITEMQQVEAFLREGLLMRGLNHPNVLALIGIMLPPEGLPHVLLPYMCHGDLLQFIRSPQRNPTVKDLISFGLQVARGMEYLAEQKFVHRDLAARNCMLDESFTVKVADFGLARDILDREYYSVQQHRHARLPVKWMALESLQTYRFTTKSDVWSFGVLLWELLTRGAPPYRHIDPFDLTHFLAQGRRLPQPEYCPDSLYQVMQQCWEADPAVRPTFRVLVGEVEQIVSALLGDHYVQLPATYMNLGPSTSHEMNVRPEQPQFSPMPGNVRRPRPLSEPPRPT
Description: B) HTRF RON Test in 96-Well Format
The inhibitory potency (IC50) of molecules on the enzymatic activity of kinase phosphorylation RON is determined by the HTRF technique. The activity of the kinase is evaluated by measuring the phosphorylation of the substrate polyGAT by the enzyme, in the presence of ATP.
Final RON 5 nM is incubated in the presence of the molecule to be tested (for a final concentration range from 0.17 nM to 10 μM, final DMSO 3%) in buffer MOPS 10 mM pH 7, DTT 1 mM, Tween 20 0.01%. This pre-incubation is performed in 96 half-well black plates in a volume of 35 μl for 30 minutes at room temperature.
The reaction is initiated by adding 15 μl of a mixture of substrates constituted of biotinylated poly-(GAT) 1 μg/ml final and ATP 10 μM final in the presence of MgCl2 5 mM final for a final volume of 50 μl.
After incubation for 30 min at room temperature, the reaction is stopped with 30 μl of a mixture of Hepes 100 mM final pH 7, potassium fluoride 400 mM final, BSA 0.1% and EDTA 133 mM in the presence of 80 ng per well of antibodies Streptavidin ITS-XL665 Cis-Bio Int. and 18 ng per well of anti-phosphotyrosine PT66 labelled with europium cryptate.
After incubation for 2 hours at room temperature, reading is carried out at 2 wavelengths 620 nm and 665 nm in a Genios TECAN reader for the TRACE/HTRF technique and the percentage inhibition is calculated according to the 665/620 ratios.

[3] = target: T1, c-MET (Homo sapiens, UniProt P08581); assay: Test A: HTRF Met test in 96-well format; assay type: biochemical
T1 construct: The recombinant DNA His-Tev-MET (956-1390) in pFastBac(Invitrogen); His (N, cleaved yes); Tev (TEV protease site) (N, cleaved yes); made in house; host or cells: SF21 insect cells (baculovirus, pFastBac)
T1 sequence (P08581 956-1390): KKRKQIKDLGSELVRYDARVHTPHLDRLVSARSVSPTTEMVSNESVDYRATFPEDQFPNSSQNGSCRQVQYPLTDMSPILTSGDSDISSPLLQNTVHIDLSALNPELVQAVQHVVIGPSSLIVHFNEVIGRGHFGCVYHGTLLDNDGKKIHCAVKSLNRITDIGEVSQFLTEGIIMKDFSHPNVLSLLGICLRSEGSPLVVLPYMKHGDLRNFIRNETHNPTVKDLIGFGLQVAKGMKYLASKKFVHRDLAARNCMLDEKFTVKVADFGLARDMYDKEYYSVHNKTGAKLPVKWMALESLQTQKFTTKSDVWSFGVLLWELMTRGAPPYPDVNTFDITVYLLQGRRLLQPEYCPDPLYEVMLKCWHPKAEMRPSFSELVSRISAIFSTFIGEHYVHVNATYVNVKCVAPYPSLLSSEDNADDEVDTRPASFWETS
Description: I) Expression and Purification of MET, Cytoplasmic Domain
The recombinant DNA His-Tev-MET (956-1390) in pFastBac(Invitrogen) is transfected in insect cells and after several stages of viral amplification, the final stock of baculovirus is tested for expression of the protein of interest.
After infection for 72 h at 27° C. with the recombinant virus, the SF21 cell cultures are harvested by centrifugation and the cellular deposits are stored at −80° C.
The cellular deposits are resuspended in the lysis buffer (buffer A [50 mM HEPES, pH 7.5, 250 mM NaCl, Glycerol 10%, TECP 1 mM]; +cocktail of protease inhibitors Roche Diagnostics without EDTA, ref 1873580), stirred at 4° C. until homogeneous, then lysed mechanically using apparatus of the “Dounce” type.
After centrifugation, the lysis supernatant is incubated for 2 h at 4° C. with Nickel Chelate resin (His-Trap 6 Fast Flow™, GE HealthCare). After washing with 20 volumes of Tp A, the suspension is packed in a column, and the proteins are eluted with a gradient of buffer B ([…]+290 mM imidazole).
The fractions containing the protein of interest with a view to electrophoretic analysis (SDS PAGE) are collected, concentrated by ultrafiltration (cut-off 10 kDa) and injected in an exclusion chromatography column (Superdex™ 200, GE HealthCare) equilibrated with buffer A.
After enzymatic cleavage of the tag Histidine, the protein is reinjected in a new IMAC Nickel Chelate chromatography column (His-Trap 6 Fast Flow™, GE HealthCare) equilibrated with Buffer A. The fractions eluted with a gradient of buffer B and containing the protein of interest after electrophoresis (SDS PAGE), are finally collected and stored at −80° C.
For the production of autophosphorylated protein, the preceding fractions are incubated for 1 h at room temperature after adding ATP 2 mM, MgCl2 2 mM, and Na3VO4 4 mM. After stopping the reaction with 5 mM of EDTA, the reaction mixture is injected in a HiPrep desalting column (GE HealthCare) equilibrated beforehand with buffer A+Na3VO4 4 mM; the fractions containing the protein of interest (SDS PAGE analysis) are collected and stored at −80° C. The degree of phosphorylation is verified by mass spectrometry (LC-MS), and by peptide mapping.
A) HTRF Met test in 96-well format
In a final volume of 50 μl of enzymatic reaction mixture, final c-MET 5 nM is incubated in the presence of the molecule to be tested (for a final concentration range from 0.17 nM to 10 μM, final DMSO 3%) in buffer MOPS 10 mM pH 7.4, DTT 1 mM, Tween 20 0.01%. The reaction is initiated by the substrate solution to obtain the final concentrations of poly-(GAT) 1 μg/ml, ATP 10 μM and MgCl2 5 mM. After incubation for 10 min at room temperature, the reaction is stopped with a mix of 30 μl to obtain a final solution of Hepes 50 mM pH 7.5, potassium fluoride 500 mM, BSA 0.1% and EDTA 133 mM in the presence of 80 ng Streptavidin 61SAXLB Cis-Bio Int. and 18 ng anti-phosphotyrosine Mab PT66-Europium Cryptate per well. After 2 hours of incubation at room temperature, reading is carried out at 2 wavelengths 620 nm and 665 nm in a reader for the TRACE/HTRF technique and the percentage inhibition is calculated according to the 665/620 ratios.

Compound | IC50 [1] | IC50 [2] | IC50 [3] | melting point
O=C(NCCN1CCOCC1)Nc1nc2ccc(OCc3c(Cl)cccc3Cl)cc2[nH]1 [Example 1, 1-{6-[(2,6-dichlorobenzyl)oxy]-1H-benzimidazol-2-yl}-3-(2-morpholin-4-ylethyl)urea] | > 10 µM | 0.5 to 10 µM | < 100 nM | 256 to 259 °C
O=C(NCCCN1CCOCC1)Nc1nc2ccc(OCc3c(Cl)cccc3Cl)cc2s1 [Example 11, 1-{6-[(2,6-dichlorobenzyl)oxy]-1,3-benzothiazol-2-yl}-3-(3-morpholin-4-ylpropyl)urea] | > 10 µM | 0.5 to 10 µM | < 100 nM | 162 to 166 °C
O=C(NCCN1CCOCC1)Nc1nc2ccc(OCc3c(F)cccc3F)cc2s1 [Example 13, 1-{6-[(2,6-difluorobenzyl)oxy]-1,3-benzothiazol-2-yl}-3-(2-morpholin-4-ylethyl)urea] | > 10 µM | 0.5 to 10 µM | < 100 nM | 219 °C
CC(Oc1ccc2nc(NC(=O)NCCN3CCOCC3)sc2c1)c1ccccc1 (centres unmarked) [Example 14, 1-(2-morpholin-4-ylethyl)-3-[6-(1-phenylethoxy)-1,3-benzothiazol-2-yl]urea] | > 10 µM | 0.5 to 10 µM | 100 to 10000 nM | 161 °C
O=C(NCCN1CCOCC1)Nc1nc2ccc(OCc3c(F)cccc3Cl)cc2s1 [Example 15, 1-{6-[(2-chloro-6-fluorobenzyl)oxy]-1,3-benzothiazol-2-yl}-3-(2-morpholin-4-ylethyl)urea] | 0.5 to 10 µM | 0.5 to 10 µM | < 100 nM | 210 °C
CC(Oc1cc2sc(N)nc2cc1F)c1c(Cl)ccc(F)c1Cl (centres unmarked) [Example 30, 6-[1-(2,6-dichloro-3-fluorophenyl)ethoxy]-5-fluoro-1,3-benzothiazol-2-amine] | > 10 µM | 0.5 to 10 µM | < 100 nM | 223 °C
CC(Oc1ccc2nc(NC(=O)NCCN3CCOCC3)sc2c1)c1cc(F)cc(F)c1 (centres unmarked) [Example 62, 1-{6-[1-(3,5-difluorophenyl)ethoxy]-1,3-benzothiazol-2-yl}-3-(2-morpholin-4-ylethyl)urea] | > 10 µM | 0.5 to 10 µM | 100 to 10000 nM | 179 °C
CC(Oc1cc2sc(NC(=O)NCCN3CCCCC3)nc2cc1F)c1c(Cl)ccc(F)c1Cl (centres unmarked) [Example 80, 1-{6-[1-(2,6-dichloro-3-fluorophenyl)ethoxy]-5-fluoro-1,3-benzothiazol-2-yl}-3-[2-(piperidin-1-yl)ethyl]urea] | 0.5 to 10 µM | 0.5 to 10 µM | < 100 nM | 186 to 195 °C
